Data: ChEMBL document CHEMBL1132301, “Carbonic anhydrase inhibitors. Synthesis of water-soluble, topically effective, intraocular pressure-lowering aromatic/heterocyclic sulfonamides containing cationic or anionic moieties: is the tail more important than the ring?” (J Med Chem, 1999)
Values after ≈ are worked out from the molar mass of the structure shown.

Columns and labels:
Carbonic anhydrase 4 = target: T1, Carbonic anhydrase 4 (Bos taurus, UniProt Q95323)
T1 sequence (Q95323 whole entry): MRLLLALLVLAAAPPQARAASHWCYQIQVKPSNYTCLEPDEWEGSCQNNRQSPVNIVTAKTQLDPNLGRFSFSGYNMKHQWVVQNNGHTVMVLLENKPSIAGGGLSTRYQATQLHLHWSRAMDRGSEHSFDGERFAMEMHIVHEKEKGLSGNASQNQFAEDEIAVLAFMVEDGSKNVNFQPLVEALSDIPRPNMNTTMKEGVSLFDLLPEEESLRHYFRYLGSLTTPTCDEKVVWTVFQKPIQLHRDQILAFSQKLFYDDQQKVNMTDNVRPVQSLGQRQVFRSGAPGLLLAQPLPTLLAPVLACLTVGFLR
Description: Inhibitory activity against bovine lung microsomes carbonic anhydrase isozyme IV (bCA IV).

Carbonic anhydrase 1 [1] = target: T2, Carbonic anhydrase 1 (Homo sapiens, UniProt P00915)
T2 sequence (P00915 whole entry): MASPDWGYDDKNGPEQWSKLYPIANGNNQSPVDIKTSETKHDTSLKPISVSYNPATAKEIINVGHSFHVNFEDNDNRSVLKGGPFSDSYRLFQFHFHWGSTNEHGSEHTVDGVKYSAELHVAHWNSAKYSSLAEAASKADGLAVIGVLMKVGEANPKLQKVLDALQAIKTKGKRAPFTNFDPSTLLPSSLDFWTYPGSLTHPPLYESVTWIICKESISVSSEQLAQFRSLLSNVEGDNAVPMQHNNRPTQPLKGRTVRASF
Description: Inhibitory activity against human cloned carbonic anhydrase isozyme I (hCA I, cytosolic form).

Carbonic anhydrase 2 [2] = target: T3, Carbonic anhydrase 2 (Homo sapiens, UniProt P00918)
Description: Inhibitory activity against human recombinant carbonic anhydrase II

Oryctolagus cuniculus [3] = species: Oryctolagus cuniculus; format: functional, Eye
Description: In vivo fall of IOP of normotensive rabbits after treatment with 1 drop(50 microL) of 2% solution of CA inhibitor with pH value 5.5 into the eye at 0 min

Oryctolagus cuniculus [4] = species: Oryctolagus cuniculus; format: functional, Eye; remark: listed apart in the source
Description: In vivo fall of IOP of normotensive rabbits after treatment with 1 drop(50 microL) of 2% solution of CA inhibitor with pH value 5.5 into the eye at 30 min

Oryctolagus cuniculus [5] = species: Oryctolagus cuniculus; format: functional, Eye; remark: listed apart in the source
Description: In vivo fall of IOP of normotensive rabbits after treatment with 1 drop(50 microL) of 2% solution of CA inhibitor with pH value 5.5 into the eye at 60 min

Oryctolagus cuniculus [6] = species: Oryctolagus cuniculus; format: functional, Eye; remark: listed apart in the source
Description: In vivo fall of IOP of normotensive rabbits after treatment with 1 drop(50 microL) of 2% solution of CA inhibitor with pH value 5.5 into the eye at 90 min.

Carbonic anhydrase 2 [7] = target: T3, Carbonic anhydrase 2; remark: listed apart in the source
Description: Inhibitory activity against human cloned Carbonic anhydrase II (hCA II, cytosolic form).

Carbonic anhydrase 1 [8] = target: T2, Carbonic anhydrase 1; remark: listed apart in the source
Description: Inhibition of human cloned Carbonic anhydrase I (hCA I,cytosolic form)

[9] = octanol/water
Description: Partition coefficient (logD) (chloroform/buffer)

Oryctolagus cuniculus [10] = species: Oryctolagus cuniculus
Description: Compound was tested in vitro for corneal permeability of compound across the Denuded epithelial cornea obtained from rabbit

Oryctolagus cuniculus [11] = species: Oryctolagus cuniculus; remark: listed apart in the source
Description: Compound was tested in vitro for corneal permeability of compound across the intact cornea obtained from rabbit

[12] = Compound was tested for solubility in pH buffer, at 25 degree C.; format: ADME

SMILES | Ki (Carbonic anhydrase 4) [nM] | Ki (Carbonic anhydrase 1 [1]) [nM] | Ki (Carbonic anhydrase 2 [2]) [nM] | also measured
CCN(C(=O)c1cccnc1C(=O)O)C1CC(C)S(=O)(=O)c2sc(S(N)(=O)=O)cc21.CCN(C(=O)c1ncccc1C(=O)O)C1CC(C)S(=O)(=O)c2sc(S(N)(=O)=O)cc21 (configuration not stated) | 18 | 450 | – | –
NS(=O)(=O)c1ccc(CCN2C(=O)c3cccnc3C2=O)cc1 | 54 | 845 | 9 | –
NS(=O)(=O)c1ccc(CONC(=O)c2cccc(C(=O)O)n2)cc1 | 120 | 2050 | 20 | –
NS(=O)(=O)c1nnc(NC(=O)c2cccc(C(=O)[O-])n2)s1.[Na+] | – | – | – | Delta IOP (Oryctolagus cuniculus [3]): 0 mmHg
Cl.NS(=O)(=O)c1ccc(CCN2C(=O)c3cccnc3C2=O)cc1 | – | – | – | Delta IOP (Oryctolagus cuniculus [4]): 2.7 mmHg; Delta IOP (Oryctolagus cuniculus [5]): 4.8 mmHg; Delta IOP (Oryctolagus cuniculus [3]): 0 mmHg; Delta IOP (Oryctolagus cuniculus [6]): 4.2 mmHg
NS(=O)(=O)c1nnc(NC(=O)CCN2C(=O)c3cccnc3C2=O)s1 | – | – | – | Ki (Carbonic anhydrase 2 [7]): 3 nM; Ki (Carbonic anhydrase 1 [8]): 18 nM; logD [9]: 0.449; Kin (Oryctolagus cuniculus [10]): 9700 h⁻¹; Kin (Oryctolagus cuniculus [11]): 3800 h⁻¹; solubility [12]: 81 mM (≈ 31 mg/mL)
Cl.NS(=O)(=O)c1nnc(N2C(=O)c3cccnc3C2=O)s1 | – | – | – | Delta IOP (Oryctolagus cuniculus [4]): 5.4 mmHg; Delta IOP (Oryctolagus cuniculus [5]): 9 mmHg; Delta IOP (Oryctolagus cuniculus [3]): 0 mmHg; Delta IOP (Oryctolagus cuniculus [6]): 8.1 mmHg
NS(=O)(=O)c1cc(S(N)(=O)=O)c(NC(=O)c2cccc(C(=O)O)n2)c(Cl)c1Cl | 55 | 450 | 10 | –
Cl.NS(=O)(=O)c1ccc(NC(=O)c2cccc(C(=O)O)n2)c(F)c1 | – | – | – | Delta IOP (Oryctolagus cuniculus [4]): 2.5 mmHg; Delta IOP (Oryctolagus cuniculus [5]): 4.2 mmHg; Delta IOP (Oryctolagus cuniculus [3]): 0 mmHg; Delta IOP (Oryctolagus cuniculus [6]): 3.9 mmHg
NS(=O)(=O)c1ccc(CNC(=O)c2cccc(C(=O)O)n2)cc1 | – | – | 36 | –
NS(=O)(=O)c1nc2ccc(NC(=O)c3cccc(C(=O)O)n3)cc2s1 | 11 | 18 | 3 | –
CCN(C(=O)c1cccnc1C(=O)O)C1CC(C)S(=O)(=O)c2sc(S(N)(=O)=O)cc21.CCN(C(=O)c1ncccc1C(=O)O)C1CC(C)S(=O)(=O)c2sc(S(N)(=O)=O)cc21.Cl (configuration not stated) | – | – | – | Delta IOP (Oryctolagus cuniculus [4]): 2.4 mmHg; Delta IOP (Oryctolagus cuniculus [5]): 5.2 mmHg; Delta IOP (Oryctolagus cuniculus [3]): 0 mmHg; Delta IOP (Oryctolagus cuniculus [6]): 3.5 mmHg
NS(=O)(=O)c1ccc(NC(=O)c2cccc(C(=O)O)n2)c(F)c1 | – | – | 8 | logD [9]: 0.117; Kin (Oryctolagus cuniculus [10]): 7000 h⁻¹; Kin (Oryctolagus cuniculus [11]): 1600 h⁻¹; solubility [12]: 66 mM (≈ 22.4 mg/mL)
NS(=O)(=O)c1nc2ccc(ONC(=O)c3cccc(C(=O)O)n3)cc2s1 | 13 | 16 | 2 | –
NS(=O)(=O)c1nc2ccc(OCCONC(=O)c3cccc(C(=O)O)n3)cc2s1 | 10 | 15 | 3 | –
NS(=O)(=O)c1ccc(NNC(=O)c2cccc(C(=O)O)n2)cc1 | – | 20600 | 270 | –
NS(=O)(=O)c1nnc(N2C(=O)c3cccnc3C2=O)s1 | 18 | – | – | Ki (Carbonic anhydrase 2 [7]): 8 nM; Ki (Carbonic anhydrase 1 [8]): 39 nM; logD [9]: 0.315; Kin (Oryctolagus cuniculus [10]): 7600 h⁻¹; Kin (Oryctolagus cuniculus [11]): 2500 h⁻¹; solubility [12]: 72 mM (≈ 22.4 mg/mL)
Cn1nc(S(N)(=O)=O)s/c1=N\C(=O)c1cccc(C(=O)O)n1 | 19 | 35 | 7 | logD [9]: 0.428; Kin (Oryctolagus cuniculus [10]): 8500 h⁻¹; Kin (Oryctolagus cuniculus [11]): 3600 h⁻¹; solubility [12]: 79 mM (≈ 27.1 mg/mL)
Cl.NS(=O)(=O)c1nc2ccc(OCCONC(=O)c3cccc(C(=O)O)n3)cc2s1 | – | – | – | Delta IOP (Oryctolagus cuniculus [4]): 4 mmHg; Delta IOP (Oryctolagus cuniculus [5]): 7.2 mmHg; Delta IOP (Oryctolagus cuniculus [3]): 0 mmHg; Delta IOP (Oryctolagus cuniculus [6]): 9 mmHg
NS(=O)(=O)c1nnc(NC(=O)c2cccc(C(=O)O)n2)s1 | 21 | 36 | 6 | logD [9]: 0.085; Kin (Oryctolagus cuniculus [10]): 6400 h⁻¹; Kin (Oryctolagus cuniculus [11]): 1100 h⁻¹; solubility [12]: 83 mM (≈ 27.3 mg/mL)
NS(=O)(=O)c1nnc(NC(=O)CCNC(=O)c2cccc(C(=O)O)n2)s1 | 9 | 19 | 2 | –
NS(=O)(=O)c1cc(S(N)(=O)=O)c(N2C(=O)c3cccnc3C2=O)cc1Cl | 60 | – | – | Ki (Carbonic anhydrase 2 [7]): 9 nM; Ki (Carbonic anhydrase 1 [8]): 600 nM
NS(=O)(=O)c1ccc(NN2C(=O)c3cccnc3C2=O)cc1 | 300 | 21500 | 275 | –
NS(=O)(=O)c1cc(S(N)(=O)=O)c(NC(=O)c2cccc(C(=O)O)n2)cc1Cl | – | – | 9 | –
CCOc1ccc2nc(S(N)(=O)=O)sc2c1 [ETHOXZOLAMIDE] | – | – | – | solubility [12]: 0.04 mM (≈ 0.0103 mg/mL)
NS(=O)(=O)c1ccc(CCNC(=O)c2cccc(C(=O)O)n2)cc1 | – | – | 7 | –
Nc1ccc(S(N)(=O)=O)cc1I | 125 | 6000 | – | –

The next lines start with results.

Ki (Carbonic anhydrase 4) [nM] | Ki (Carbonic anhydrase 1 [1]) [nM] | SMILES | Ki (Carbonic anhydrase 2 [2]) [nM] | also measured
69 | 575 | NS(=O)(=O)c1ccc(NC(=O)c2cccc(C(=O)O)n2)c(Br)c1 | – | –
79 | – | NS(=O)(=O)c1ccc(CN2C(=O)c3cccnc3C2=O)cc1 | 42 | –
180 | – | Nc1ccc(S(N)(=O)=O)cc1F | – | –
305 | – | NS(=O)(=O)c1cccc(N2C(=O)c3cccnc3C2=O)c1 | – | Ki (Carbonic anhydrase 2 [7]): 250 nM; Ki (Carbonic anhydrase 1 [8]): 20000 nM
19 | – | Nc1ccc2nc(S(N)(=O)=O)sc2c1 | – | Ki (Carbonic anhydrase 1 [8]): 70 nM
75 | 605 | NS(=O)(=O)c1ccc(N2C(=O)c3cccnc3C2=O)c(Br)c1 | 31 | –
450 | – | NS(=O)(=O)c1ccc(CCO)cc1 | – | –
15 | […] | NS(=O)(=O)c1nc2ccc(OCCO)cc2s1 | – | –
300 | – | NS(=O)(=O)c1ccccc1NC(=O)c1cccc(C(=O)O)n1 | – | –
1310 | – | Nc1ccccc1S(N)(=O)=O | – | –
9 | – | NS(=O)(=O)c1nc2ccc(N3C(=O)c4cccnc4C3=O)cc2s1 | – | Ki (Carbonic anhydrase 2 [7]): 4 nM; Ki (Carbonic anhydrase 1 [8]): 12 nM
66 | – | Nc1ccc(S(N)(=O)=O)cc1Br | – | –
70 | 610 | NS(=O)(=O)c1ccc(N2C(=O)c3cccnc3C2=O)c(I)c1 | 33 | –
– | 600 | NS(=O)(=O)c1ccc(NC(=O)c2cccc(C(=O)O)n2)c(I)c1 | – | –
69 | – | NS(=O)(=O)c1cc(S(N)(=O)=O)c(N2C(=O)c3cccnc3C2=O)c(Cl)c1Cl | – | Ki (Carbonic anhydrase 2 [7]): 12 nM; Ki (Carbonic anhydrase 1 [8]): 500 nM
66 | – | NS(=O)(=O)c1ccc(NC(=O)c2cccc(C(=O)O)n2)c(Cl)c1 | – | Ki (Carbonic anhydrase 1 [8]): 600 nM
105 | 2000 | NS(=O)(=O)c1ccc(CCONC(=O)c2cccc(C(=O)O)n2)cc1 | 15 | –
46 | 540 | NS(=O)(=O)c1ccc(N2C(=O)c3cccnc3C2=O)c(F)c1 | 10 | –
310 | 21000 | NS(=O)(=O)c1ccccc1N1C(=O)c2cccnc2C1=O | 280 | –
150 | 15000 | NS(=O)(=O)c1ccc(NC(=O)c2cccc(C(=O)O)n2)cc1 | – | –
285 | – | NS(=O)(=O)c1cccc(NC(=O)c2cccc(C(=O)O)n2)c1 | – | –
125 | – | NCCC(=O)Nc1nnc(S(N)(=O)=O)s1 | – | –
79 | 620 | NS(=O)(=O)c1ccc(N2C(=O)c3cccnc3C2=O)c(Cl)c1 | 44 | –
175 | 6100 | Nc1c(S(N)(=O)=O)cc(S(N)(=O)=O)c(Cl)c1Cl | – | –
170 | – | NS(=O)(=O)c1ccc(N2C(=O)c3cccnc3C2=O)cc1 | – | Ki (Carbonic anhydrase 2 [7]): 132 nM; Ki (Carbonic anhydrase 1 [8]): 15500 nM
